SMILES strings stand for the structures.

The first assay deals with AKT protein phosphorylated on serine 473 (P-AKT-S473) in PC3 human prostate carcinoma cells. In words: pAKT expression in PC3 human prostate carcinoma cells, MSD Multi-spot Biomarker detection (Test A). Format: cell-based. The conditions noted are these: Homo sapiens, PC-3, PC3 cells, 1 to 2 h incubation, P-AKT-S473, absolute IC50, mean of two independent experiments. The gist of the method:
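Lysate pAKT-S473 measured by electrochemiluminescent sandwich immunoassay; inhibition versus cell-free background and DMSO-only wells, IC50 averaged over two experiments.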
With `CCCN1CCCC(c2cccc3c2CCN3C(=O)Cc2nc(N3CCOCC3)cc(=O)[nH]2)C1` (stereo not drawn) [Example 7d, 6-(morpholin-4-yl)-2-{2-oxo-2-[4-(1-propylpiperidin-3-yl)-2,3-dihydro-4H-indol-1-yl]ethyl}pyrimidin-4(3H)-one], the half-maximal inhibitory concentration (IC50) amounted to 102 nM.
On to `Cn1c(CC(=O)N2CCc3c(Cl)cccc32)nc(N2CCOCC2)cc1=S` [Example 7e, 1-(4-chloro-2,3-dihydroindol-1-yl)-2-(1-methyl-4-morpholin-4-yl-6-thioxo-1,6-dihydropyrimidin-2-yl)ethanone], for which the 50% inhibitory concentration (IC50) was 33 nM.
`C[C@H]1Cc2ccccc2N1C(=O)Cc1nc(N2CCOCC2)c(F)c(=O)n1C` [Example 8a, 5-fluoro-3-methyl-2-{2-[(2S)-2-methyl-2,3-dihydro-1H-indol-1-yl]-2-oxoethyl}-6-(morpholin-4-yl)pyrimidin-4(3H)-one] registered a half-inhibitory concentration (IC50) of 107 nM.
Turning to `CC1(C)CN(C(=O)Cc2nc(N3CCOCC3)cc(=O)[nH]2)c2cccc(F)c21` [Example 8c, 2-[2-(4-fluoro-3,3-dimethyl-2,3-dihydro-1H-indol-1-yl)-2-oxoethyl]-6-(morpholin-4-yl)pyrimidin-4(3H)-one], the half-inhibitory concentration (IC50) worked out at 52 nM.
Consider `Cn1c(CC(=O)N2CCc3c(OC(F)F)cccc32)nc(N2CCOCC2)cc1=O` [Example 8d, 2-{2-[4-(difluoromethoxy)-2,3-dihydro-1H-indol-1-yl]-2-oxoethyl}-3-methyl-6-(morpholin-4-yl)pyrimidin-4(3H)-one], for which the IC50 stood at 60 nM.
The molecule `CC1Cc2c(ccc(F)c2F)N1C(=O)Cc1nc(N2CCOCC2)c(F)c(=S)[nH]1` (stereo not drawn) [Example 8e, 1-((+)-4,5-Difluoro-2-methyl-2,3-dihydroindol-1-yl)-2-(5-fluoro-4-morpholin-4-yl-6-thioxo-1,6-dihydropyrimidin-2-yl)ethanone] showed a concentration for half-maximal inhibition (IC50) of 11 nM.
`C[C@@H]1Cc2ccccc2N1C(=O)Cc1nc(N2CCOCC2)c(F)c(=O)n1C` [Example 9a, 5-fluoro-3-methyl-2-{2-[(2R)-2-methyl-2,3-dihydro-1H-indol-1-yl]-2-oxoethyl}-6-(morpholin-4-yl)pyrimidin-4(3H)-one]: the midpoint of inhibition, the IC50, lay at 120 nM.
Regarding `O=C(Cc1nc(N2CCOCC2)cc(=O)[nH]1)N1CCc2c(OC(F)F)cccc21` [Example 9d, 2-{2-[4-(difluoromethoxy)-2,3-dihydro-1H-indol-1-yl]-2-oxoethyl}-6-(morpholin-4-yl)pyrimidin-4(3H)-one], inhibition was half-maximal at 44 nM (IC50).
The molecule `CC1Cc2c(ccc(F)c2F)N1C(=S)Cc1nc(N2CCOCC2)c(F)c(=S)[nH]1` (stereo not drawn) [Example 9e, 2-[2-((+)-4,5-Difluoro-2-methyl-2,3-dihydroindol-1-yl)-2-thioxoethyl]-5-fluoro-6-morpholin-4-yl-3H-pyrimidine-4-thione] registered a 50% inhibitory concentration (IC50) of 1 nM.
In turn, `O=C(Cc1nc(N2CCOCC2)cc(=O)[nH]1)N1CCc2c(-c3ccncc3)cccc21` [Example 10d, 6-(morpholin-4-yl)-2-{2-oxo-2-[4-(pyridin-4-yl)-2,3-dihydro-1H-indol-1-yl]ethyl}pyrimidin-4(3H)-one] showed an IC50 of 94 nM.
On the same count and under the same terms, the value for `C[C@H]1Cc2ccccc2N1C(=O)Cc1nc(N2CCOCC2)c(F)c(=S)[nH]1` [Example 10e, 2-(5-fluoro-4-morpholin-4-yl-6-thioxo-1,6-dihydropyrimidin-2-yl)-1-((S)-2-methyl-2,3-dihydroindol-1-yl)ethanone] was 221 nM.
As to `O=C(Cc1nc(N2CCOC3CCCC32)cc(=O)[nH]1)N1CCc2c(F)cccc21` (stereo not drawn) [Example 11b, 2-[2-(4-fluoro-2,3-dihydroindol-1-yl)-2-oxoethyl]-6-(hexahydrocyclopenta[1,4]oxazin-4-yl)-3H-pyrimidin-4-one], the IC50 is 12 nM.
For the molecule `CN1CCC2(CC1)CN(C(=O)Cc1nc(N3CCOCC3)cc(=O)[nH]1)c1ccccc12` [Example 11d, 2-[2-(1′-methylspiro[indole-3,4′-piperidin]-1(2H)-yl)-2-oxoethyl]-6-(morpholin-4-yl)pyrimidin-4(3H)-one], it took 26 nM to reach half-maximal inhibition (IC50).
In the case of `C[C@@H]1Cc2ccccc2N1C(=O)Cc1nc(N2CCOCC2)c(F)c(=S)[nH]1` [Example 11e, 2-(5-fluoro-4-morpholin-4-yl-6-thioxo-1,6-dihydropyrimidin-2-yl)-1-((R)-2-methyl-2,3-dihydroindol-1-yl)ethanone], inhibition was half-maximal at 61 nM (IC50).
Regarding `O=C(Cc1nc(-c2ccncc2)cc(=O)[nH]1)N1CCc2c(F)cccc21` [Example 12b, 2-[2-(4-fluoro-2,3-dihydroindol-1-yl)-2-oxoethyl]-6-pyridin-4-yl-3H-pyrimidin-4-one], the half-maximal inhibitory concentration (IC50) was determined as 370 nM.
The molecule `O=C(Cc1nc(N2CCOCC2)cc(=O)[nH]1)N1CCc2c(-c3ccccn3)cccc21` [Example 12d, 6-(morpholin-4-yl)-2-{2-oxo-2-[4-(pyridin-2-yl)-2,3-dihydro-1H-indol-1-yl]ethyl}pyrimidin-4(3H)-one] showed an IC50 of 66 nM.
Same read-out and setting: in the case of `COc1cc(-c2cc(=O)[nH]c(CC(=O)N3CCc4c(F)cccc43)n2)ccn1` [Example 13b, 2-[2-(4-fluoro-2,3-dihydroindol-1-yl)-2-oxoethyl]-6-(2-methoxypyridin-4-yl)-3H-pyrimidin-4-one] it was 3000 nM; in that of `O=C(Cc1nc(N2CCOCC2)cc(=O)[nH]1)N1CCc2c(-c3cccnc3)cccc21` [Example 13d, 6-(morpholin-4-yl)-2-{2-oxo-2-[4-(pyridin-3-yl)-2,3-dihydro-1H-indol-1-yl]ethyl}pyrimidin-4(3H)-one], 53 nM.
`CC1Cc2cc(F)ccc2N1C(=O)Cc1nc(N2CCOCC2)c(F)c(=O)n1C` (stereo not drawn) [Example 14a, 5-fluoro-2-[2-((−)-5-fluoro-2-methyl-2,3-dihydroindol-1-yl)-2-oxoethyl]-3-methyl-6-morpholin-4-yl-3H-pyrimidin-4-one] gave an IC50 of 55 nM.
On the same count and under the same terms, the value for `O=C(Cc1nc(N2CCOCC2)cc(=O)[nH]1)N1CCc2c(-c3ccccc3Cl)cccc21` [Example 14d, 2-{2-[4-(2-chlorophenyl)-2,3-dihydro-1H-indol-1-yl]-2-oxoethyl}-6-(morpholin-4-yl)pyrimidin-4(3H)-one] was 42 nM.
As to `O=C(Cc1nc(N2CCOCC2)cc(=O)n1C1CC1)N1CCc2c(Cl)cccc21` [Example 15d, 2-[2-(4-chloro-2,3-dihydro-1H-indol-1-yl)-2-oxoethyl]-3-cyclopropyl-6-(morpholin-4-yl)pyrimidin-4(3H)-one], the IC50 was determined as 37 nM.
With `O=C(Cc1nc(N2CCOCC2)cc(=O)[nH]1)N1c2ccccc2C2CCCC21` (stereo not drawn) [Example 16d, 6-(morpholin-4-yl)-2-[2-oxo-2-(2,3,3a,8b-tetrahydrocyclopenta[b]indol-4(1H)-yl)ethyl]pyrimidin-4(3H)-one], half-maximal inhibition (IC50) was put at 30 nM.
Turning to `CS(=O)(=O)N1CCN(Cc2cccc3c2CCN3C(=O)Cc2nc(N3CCOCC3)cc(=O)[nH]2)CC1` [Example 17d, 2-[2-(4-{[4-(methylsulfonyl)piperazin-1-yl]methyl}-2,3-dihydro-1H-indol-1-yl)-2-oxoethyl]-6-(morpholin-4-yl)pyrimidin-4(3H)-one], 259 nM corresponded to half-maximal inhibition (IC50).
With `CC1Cc2c(Cl)cccc2N1C(=O)Cc1nc(N2CCOCC2)c(F)c(=O)[nH]1` (stereo not drawn) [Example 18a, 5-fluoro-2-[2-((+)-4-chloro-2-methyl-2,3-dihydroindol-1-yl)-2-oxoethyl]-6-morpholin-4-yl-3H-pyrimidin-4-one], the IC50 is 38 nM.
Molecule `[2H]C1([2H])COCC([2H])([2H])N1c1cc(=O)[nH]c(CC(=O)N2CC(C)(C)c3ccccc32)n1` [Example 18b, 2-[2-(3,3-dimethyl-2,3-dihydroindol-1-yl)-2-oxoethyl]-6-morpholin(D4)-4-yl-3H-pyrimidin-4-one] displayed a 50% inhibitory concentration (IC50) of 91 nM.
Regarding `CN1CCN(Cc2cccc3c2CCN3C(=O)Cc2nc(N3CCOCC3)cc(=O)[nH]2)CC1` [Example 18d, 2-(2-{4-[(4-methylpiperazin-1-yl)methyl]-2,3-dihydro-1H-indol-1-yl}-2-oxoethyl)-6-(morpholin-4-yl)pyrimidin-4(3H)-one], inhibition was half-maximal at 272 nM (IC50).

The assay is the same for the next values; noted with them: PC3 cells, 1 to 2 h incubation, P-AKT-S473, absolute IC50, mean of two independent experiments.
Regarding `CC1CN(c2cc(=O)[nH]c(CC(=O)N3CCc4c(F)cccc43)n2)CCO1` (stereo not drawn) [Example 8b, 2-[2-(4-fluoro-2,3-dihydroindol-1-yl)-2-oxoethyl]-6-(2-methylmorpholin-4-yl)-3H-pyrimidin-4-one], the half-inhibitory concentration (IC50) is 18 nM.
Same read-out and setting: the value for `CC1Cc2c(F)cccc2N1C(=O)Cc1nc(N2CCOCC2)c(F)c(=O)[nH]1` (stereo not drawn) [Example 10a, 5-fluoro-2-[2-((+)-2-methyl-4-fluoro-2,3-dihydroindol-1-yl)-2-oxoethyl]-6-morpholin-4-yl-3H-pyrimidin-4-one] was 116 nM; that for `CC1Cc2c(F)cccc2N1C(=O)Cc1nc(N2CCOCC2)c(F)c(=O)[nH]1` (stereo not drawn) [Example 11a, 5-fluoro-2-[2-((−)-2-methyl-4-fluoro-2,3-dihydroindol-1-yl)-2-oxoethyl]-6-morpholin-4-yl-3H-pyrimidin-4-one] was 24 nM; that for `CC1Cc2cc(F)c(F)cc2N1C(=O)Cc1nc(N2CCOCC2)c(F)c(=O)[nH]1` (stereo not drawn) [Example 12a, 2-[2-((+)-5,6-difluoro-2-methyl-2,3-dihydroindol-1-yl)-2-oxoethyl]-5-fluoro-6-morpholin-4-yl-3H-pyrimidin-4-one] was 16 nM.
Same read-out and setting: in the case of `CC1Cc2cc(F)c(F)cc2N1C(=O)Cc1nc(N2CCOCC2)c(F)c(=O)[nH]1` (stereo not drawn) [Example 13a, 2-[2-((−)-5,6-difluoro-2-methyl-2,3-dihydroindol-1-yl)-2-oxoethyl]-5-fluoro-6-morpholin-4-yl-3H-pyrimidin-4-one] it was 162 nM; in that of `CC1Cc2cc(F)ccc2N1C(=O)Cc1nc(N2CCOCC2)c(F)c(=O)n1C` (stereo not drawn) [Example 15a, 5-fluoro-2-[2-((+)-5-fluoro-2-methyl-2,3-dihydroindol-1-yl)-2-oxoethyl]-3-methyl-6-morpholin-4-yl-3H-pyrimidin-4-one], 65 nM; in that of `CC1Cc2c(Cl)cccc2N1C(=O)Cc1nc(N2CCOCC2)c(F)c(=O)[nH]1` (stereo not drawn) [Example 19a], 19 nM.

Usually IC50 stands for the concentration at which inhibition is half-maximal. Lower therefore signals greater potency in that assay.

The record behind these values is US9133168B2, “Pyrimidine derivatives, preparation thereof, and pharmaceutical use thereof as akt(pkb) phosphorylation inhibitors” (SANOFI, priority 2010, dated 2015).
